Earlier results, collected in article PMC3349014 (Journal of the American Chemical Society, 2012).

Conditions: over 3 h

## Ac-Im-Py-Py-γ-Im-Py-Py-β-Dp [compound 1035]
  Rat plasma levels after IV injection: drop to low percent over 3 h

## Ac-Py-Py-β-Py-Im-Py-γ-Py-Py-Py-β-Im-Py-β-Dp [compound 1666]
  Rat plasma levels after IV injection: drop to low percent over 3 h
